According to paper PMC12362764, “Novel Cyano‐Artemisinin Dimer ZQJ29 Targets PARP1 to Induce Ferroptosis in Pancreatic Cancer Treatment” (Advanced Science, 2025):

Key:
[1] = Toxicity in tumor-bearing mice (body weight, ALT/AST, H&E); type: in vivo, BALB/c nude mice
Procedure: (§1) Five‐week‐old male BALB/c nude mice were purchased from Shanghai Jihui Laboratory Animal Breeding Co., Ltd. (Shanghai, China). After a one‐week acclimatization period, PANC‐1 cells were subcutaneously injected at a dose of 5 × 10^6 cells per mouse. Four weeks post‐injection, once tumor volumes reached 50–100 mm^3, the tumor‐bearing animals were randomly divided into four groups, each consisting of six animals. ZQJ29 was prepared in a 0.5% CMC‐Na solution, while OXA was dissolved in saline. The control group was treated with oral gavage of 0.5% CMC‐Na, while the positive control group was administered intraperitoneal injections of OXA at a dosage of 3 mg kg^−1 every three days. The test groups were treated with oral gavage of ZQJ29 at dosages of 25 and 50 mg kg day^−1. Mouse weights were monitored every other day. Tumor measurements were taken every other day using calipers, and the tumor volume was calculated using the following formula: ½ × length × width^2. Drug administered continued for three weeks. After blood collection at the end of the administration, the mice were humanely euthanized, and their vital organs were promptly harvested, preserved, and embedded in paraffin for H&E staining.
Following the experiments, organs from mice, including hearts, livers, spleens, lungs, and kidneys were swiftly collected and fixed in 4% paraformaldehyde overnight. The tissues were then embedded in paraffin. Afterward, 4‐µm‐thick sections were produced and stained using H&E. Images of these sections were captured with a Leica DM4000b microscope (Germany).
Blood samples were collected and placed in a biochemical incubator for 30 min, followed by centrifugation at 6000 rpm for 10 min. The supernatant was used to measure the following indicators: ALT and AST (both from Jiancheng, Nanjing, China).

[2] = target: PARP1 (Homo sapiens, UniProt P09874); assay: DARTS; type: binding; set-up: Total cellular proteins from PANC‐1 and KP4 were extracted using M‐PER lysis buffer; endogenous in cells; host or cells: PANC-1 and KP4 pancreatic cancer cells; conditions: enzyme-lysate ratio 1:3000, higher ZQJ29 concentrations
Procedure: Total cellular proteins from PANC‐1 and KP4 were extracted using M‐PER lysis buffer (Thermo Fisher, USA). Aliquots of 50 µg of protein were taken from the lysate and placed into each 1.5 mL tube. Different concentrations of ZQJ29 were added to some tubes, while control tubes received an equal amount of DMSO. The mixtures were incubated at room temperature for 1 h. After incubation, Pronase was added to the mixture of cellular proteins at a ratio of Pronase: protein = 1: 3000 for digestion at room temperature for 15 min. Following digestion, 5 × loading buffer was added, and the samples were heated at 100 °C for 10 min before being used for western blot analysis.

[3] = tested on: HCT116; assay: CCK-8 cytotoxicity assay, HCT116; type: cell-based; conditions: Homo sapiens, HCT-116; HCT116, 72 h
Procedure: (§2) Cell viability was evaluated using the Cell Counting Kit‐8 (Beyotime, Shanghai, China) assay. Cells were seeded in 96‐well plates at a density of 2×10^3 cells to allow for attachment. After treatment with ZQJ29 (0.001, 0.01, 0.1, 10, and 25 µM) for 24, 48, and 72 h, 10 µL of CCK‐8 solution was added to each well and incubated for 1 h. The optical density values were then measured at 450 nm using a multifunctional enzyme‐linked immunosorbent assay reader (Tecan, Spark, Switzerland).

[4] = tested on: PANC-1 and KP4 cells; assay: Colony formation assay; type: cell-based; conditions: 0, 1, 2.5, 5 µM, concentration-dependent
Procedure: The clonogenicity of pancreatic cancer cells was evaluated using a colony formation assay. PANC‐1 and KP4 cells were seeded into 6‐well plates at ≈200 cells per well in the conditional medium. The cells were treated with different concentrations of ZQJ29 (0, 1, 2.5, and 5 µM) for 24 h. After treatment, the drug‐containing medium was removed, and complete medium was added for an additional […] in a 37 °C incubator with 5% CO2. The plates were then washed with PBS and fixed with 4% paraformaldehyde. After staining with 0.5% crystal violet (Yeasen, Shanghai, China), the colonies were counted manually.

[5] = tested on: JHH7; assay: CCK-8 cytotoxicity assay, JHH7; type: cell-based; conditions: JHH7, 72 h
Procedure: as §2

[6] = tested on: HeLa; assay: CCK-8 cytotoxicity assay, HeLa; type: cell-based; conditions: Homo sapiens, 72 h
Procedure: as §2

[7] = tested on: PANC-1 tumors; assay: PANC-1 subcutaneous xenograft antitumor activity; type: in vivo, BALB/c nude mice
Procedure: as §1

[8] = tumor tissue and proteomic analyses

Chain of PARP1 (P09874 whole entry): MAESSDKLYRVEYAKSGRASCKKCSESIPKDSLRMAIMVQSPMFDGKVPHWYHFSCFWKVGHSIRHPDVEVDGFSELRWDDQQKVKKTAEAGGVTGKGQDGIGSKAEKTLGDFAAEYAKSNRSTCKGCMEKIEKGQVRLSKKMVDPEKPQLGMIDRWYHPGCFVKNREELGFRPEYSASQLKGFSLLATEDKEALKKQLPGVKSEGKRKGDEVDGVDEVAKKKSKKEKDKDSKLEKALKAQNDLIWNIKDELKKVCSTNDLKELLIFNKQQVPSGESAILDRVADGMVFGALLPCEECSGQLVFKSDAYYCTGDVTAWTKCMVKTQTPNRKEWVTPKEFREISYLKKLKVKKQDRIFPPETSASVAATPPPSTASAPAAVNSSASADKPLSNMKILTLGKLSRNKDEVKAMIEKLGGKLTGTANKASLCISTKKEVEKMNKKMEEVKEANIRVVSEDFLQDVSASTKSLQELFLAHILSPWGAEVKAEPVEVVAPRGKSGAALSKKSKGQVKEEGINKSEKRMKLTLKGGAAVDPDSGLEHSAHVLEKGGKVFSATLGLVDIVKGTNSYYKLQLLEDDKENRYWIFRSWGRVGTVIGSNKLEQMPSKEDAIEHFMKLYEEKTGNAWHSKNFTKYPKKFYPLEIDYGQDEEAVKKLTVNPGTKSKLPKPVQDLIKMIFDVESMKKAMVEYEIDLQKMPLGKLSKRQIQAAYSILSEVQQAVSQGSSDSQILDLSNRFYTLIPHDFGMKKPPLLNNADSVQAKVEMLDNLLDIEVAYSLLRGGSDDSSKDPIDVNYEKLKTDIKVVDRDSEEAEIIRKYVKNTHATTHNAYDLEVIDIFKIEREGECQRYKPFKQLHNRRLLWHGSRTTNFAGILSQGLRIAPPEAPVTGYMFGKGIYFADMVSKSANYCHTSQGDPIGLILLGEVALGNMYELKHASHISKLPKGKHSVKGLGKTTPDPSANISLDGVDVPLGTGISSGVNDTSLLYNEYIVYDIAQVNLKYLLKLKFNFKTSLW

SMILES: CC1CCC2C(C)C(OCCN(C#N)CCOC3OC4OC5(C)CCC6C(C)CCC(C3C)C46OO5)OC3OC4(C)CCC1C32OO4 (stereo not shown) [ZQJ29]
- post-experiment levels of ALT and AST ([1]; ZQJ29 50 mg/kg, OXA 3 mg/kg i.p.): no significant alterations
- major organ damage (H&E staining) ([1]; hearts, livers, spleens, lungs, kidneys): no significant major organ damage
- body weight during the whole treatment period ([1]; tumor-bearing nude mice, three weeks): remained stable
- PARP1 accumulation after pronase digestion [2]: increased
- IC50 [3]: 1020 ± 500 nM
- colony formation [4]: significantly inhibited
- IC50 [5]: 791 ± 305 nM
- IC50 [6]: 1280 ± 289 nM
- tumor size and weight ([7]; 25 or 50 mg/kg oral, vs control group): significantly reduced
- tumor growth ([7]; ZQJ29 25 and 50 mg/kg/day oral gavage, OXA 3 mg/kg i.p. every three days, three weeks, vs control): effectively inhibited
- expression of Ki67 and PCNA in tumor tissue (IHC) ([7]; after treatment, vs control): significantly reduced
- expression of PARP1, SLC7A11 and GPX4 [7, 8]: downregulated
- expression of TP53 [7, 8]: upregulated
